Laboratory results reported in patent publication US20110190373A1, “METHODS AND COMPOSITIONS FOR THE TREATMENT OR PREVENTION OF PATHOLOGICAL CARDIAC REMODELING AND HEART FAILURE” (UNIVERSITY OF ROCHESTER, priority 2008, published 2011).
“Also recorded” adds a separate entry of the source.

Key:
[1] = tested on: rat neonatal cardiomyocytes; test: PE-induced cardiomyocyte hypertrophy, protein synthesis by [3H]-leucine incorporation; type: cell-based; conditions: NRVM
Method: (§1) FIGS. 3A-C show the effects of PDE1 inhibitors on pathological cardiomyocyte hypertrophy. Myocyte hypertrophy was induced in NRVM by α-adrenergic agonist, phenylephrine (PE). Hypertrophy was assessed by protein synthesis by measuring [^3H]-leucine incorporation (normalized to the total DNA content), or by myocyte surface area. PDE inhibitor 8-MM-IBMX (at 10 μM the concentration selective to PDE1) blocked PE-induced cardiomyocyte protein synthesis measured by [^3H]-leucine incorporation (FIG. 3A) or measured by myocyte surface area (FIG. 3B).
Rat neonatal cardiomyocytes were cultured in serum-free medium for 24 hours. […] Cells were lysed and ^3H-leucine incorporation in cell lysates were then measured by scintillation counter. […]
(§2) FIG. 4A illustrates a representative Western blot showing PDE1A protein expression in neonatal cardiomyocytes either not transfected (NT), or transfected with off-targeting control siRNA (1 μg) or rat PDE1A siRNA (0.5 or 1.0 μg) for 72 hours via electroporation. […] Protein synthesis assessed by [^3H]-leucine incorporation (normalized to the total DNA content) in NRVM transfected with 1 μg of control siRNA or PDE1A siRNA followed by PE (50 μmol/L) or vehicle (ctrl) stimulation for 48 hours (FIG. 4B). […] Data were quantified by densitometry in a linear range and normalized to GAPDH mRNA levels. […]

[2] = tested on: rat neonatal cardiomyocytes; test: PE-induced cardiomyocyte hypertrophy, myocyte (cell) surface area; type: cell-based; conditions: NRVM
Method: as §1
Effects of PDE1 inhibitor 8-MM-IBMX on PE-stimulated cell hypertrophic growth were measured by cell surface area (FIG. 3B). Rat neonatal cardiomyocytes were treated with either […] or vehicle, followed without (ctrl) or with PE stimulation. Cells were stained for α-actinin (a cardiomyocyte specific marker) to exclude the contamination of cardiac fibroblasts. At lease 100 α-actinin positive cells were analyzed. Cell surface area was measured by Image J program.
Effects of PDE1 inhibitor vinpocetine on PE-stimulated cell hypertrophic growth were measured by cell surface area (FIG. 3C). Rat neonatal cardiomyocytes were treated with either 20 μM Vinpocetine (vinp) or vehicle, followed without (ctrl) or with PE stimulation. Cell surface area was measured as above. Data were normalized to control (vehicle, without PE) that was arbitrarily set to 1.0. Data are means of at least 100 cells (mean±SD). […]
as §2

[3] = tested on: mouse cardiac hypertrophy; test: Cardiac hypertrophy induced by chronic ISO infusion in mice; type: in vivo; conditions: i.p. 10 mg/kg/d, ISO 30 mg/kg/d for 7 days
Method: FIGS. 5A-F illustrate that Vinpocetine attenuates cardiac hypertrophy in vivo. C57 mice received continuous vehicle (0.002% ascorbic acid in PBS) or ISO (30 mg/kg/d) infusion via osmotic pumps for 7 days, and also received daily DMSO or Vinpocetine treatment (i.p. 10 mg/kg/d). Control group (Con): mice receiving only vehicle infusion for 7 days. ISO group: mice receiving ISO infusion and DMSO treatment for 7 days. ISO+Vinp group: mice receiving ISO infusion and vinpocetine treatment for 7 days. After 7 days, animals were sacrificed and hearts were excised, weighed, frozen in −80° C. for mRNA assay, or fixed in 10% formalin for histology analysis. FIG. 5A are representative gross heart images showing effects of PDE1 inhibitor on cardiac hypertrophy. FIGS. 5B-C are graphs showing the effect of Vinpocetine on heart to body weight ratio or heart weight to tibial length ratio, respectively. […] FIGS. 5E-F are graphs showing the effect of Vinpocetine on ANP and BNP mRNA expression, respectively. Total RNA from left ventricles were subjected to real-time RT-PCR analyses for the mRNA levels of ANP and BNP. Data were normalized to control and sham samples that were arbitrarily set to 1.0. Data represent mean of 4 animals (mean±SEM). **P<0.01 vs. control mice. ##P<0.01 vs. ISO-infused mice without Vinpocetine. […] PDE1 is a well known biological target for Vinpocetine. […] Based on these reasons, the effects of Vinpocetine were tested on cardiomyocyte hypertrophy in vivo.

[4] = therapeutic doses, patients; cited from earlier work
[5] = 20 μM, α-actinin positive cells

COCc1nc2c([nH]1)c(=O)n(C)c(=O)n2CC(C)C [8-MM-IBMX, 8-methoxymethyl-isobutylmethylxanthine]
PE-induced cardiomyocyte protein synthesis measured by [3H]-leucine incorporation ([1]; 10 μM (figure legend)): blocked | PE-induced hypertrophy assessed by protein synthesis with 3H-leucine incorporation ([1]; 20 μmol/L, PE 48 hours, normalized to DNA content): significantly attenuated | PE-induced hypertrophy measured by myocyte surface area ([2]; 10 μM (figure legend)): blocked | PE-induced hypertrophy measured by myocyte surface area [2, 5]: significantly attenuated

CCOC(=O)C1=C[C@]2(CC)CCCN3CCc4c(n1c1ccccc41)[C@@H]32 [Vinpocetine, (+)-vinpocetine]
ISO-induced increase in cross-section areas of cardiomyocytes in left ventricles ([3]; H&E staining): significantly attenuated | cardiac hypertrophy measured by gross heart morphology ([3]; mouse): significantly reduced | heart weight/body weight (HW/BW) ratio ([3]; mouse): significantly reduced | heart weight/tibia length (HW/TL) ratio ([3]; mouse): significantly reduced | ANP mRNA level in left ventricle ([3]; real-time RT-PCR): significantly decreased | BNP mRNA level in left ventricle ([3]; real-time RT-PCR): significantly decreased | side effects, toxicity or contraindications [4]: no reports of significant side effects, toxicity or contraindications | PE-induced hypertrophy measured by myocyte surface area [2, 5]: significantly reduced; also recorded: significantly blocked
